Data from patent US20240189254A1, “Xylitol Topical Ocular Solution” (GSX Pharma LLC, priority 2022, published 2024).
Like-named read-outs stand apart in the source and are kept apart here.

Tests used:
[1] = tested on: Acanthamoeba trophozoites; details: 48 h of exposure; cited from earlier work
[2] = tested on: Acanthamoeba cysts; details: 48 h of exposure; cited from earlier work
[3] = tested on: Acanthamoeba species cysts; experiment: PMN testing of Acanthamoeba species, xylitol with PHMB; assay type: cell-based; details: xylitol 6% to 20%
Source text: In PMN testing of a number of Acanthamoeba species, Xylitol in concentrations ranging from 6% to 20% has appeared to potentiate the acanthamoeba cysticidal effects of PHMB. In order for a disinfectant like PHMB to be cysticidal, it must gain access to the trophozoite internalized within the cyst. The most obvious route is via the ostioles or the pores in the double cell wall of the cyst that connect the outer exocyst and inner endocyst, thus allowing the internalized amoeba to communicate with its outside environment. It is believed that the mucopolysaccharides of the ostioles are altered by xylitol that enhance the binding by PHMB to allow […] penetration of the disinfectant.

[4] = limited human studies of topical xylitol; assay type: in vivo; details: topical 4% to 7% xylitol, 2-5 times per day
[5] = tested on: S. mutans; details: in spite of the presence of glucose or sucrose; cited from earlier work
[6] = tested on: Streptococcus salivarius; details: cited from earlier work
[7] = tested on: Streptococcus sanguis; details: cited from earlier work
[8] = tested on: S. pneumoniae; details: glucose in the growth medium, cited from earlier work
[9] = tested on: beta-haemolytic streptococci; details: 5% xylitol; cited from earlier work
[10] = tested on: H. influenzae; details: 5% xylitol; cited from earlier work
[11] = tested on: M. catarrhalis; details: 5% xylitol; cited from earlier work
[12] = 8.4-10 g daily in five doses, 2-3 months follow-up, cited from earlier work
[13] = tested on: S. mutans; details: cited from earlier work
[14] = tested on: S. pneumoniae; details: cited from earlier work
[15] = tested on: H. influenzae; details: cited from earlier work
[16] = tested on: Streptococcus pneumoniae strains; details: xylitol 0.5 to 5%; cited from earlier work
[17] = tested on: SARS-CoV-2; details: in vitro, within minutes of application, lasting for hours; cited from earlier work
[18] = in vivo; cited from earlier work

Molecule: Polyhexamethylene Biguanide [PHMB]
- minimum trophozoite amoebicidal concentration (MTAC) [1]: 1 g/mL
- minimum cysticidal concentration (MCC) [2]: 3 g/mL

Molecule: OC[C@@H](O)[C@H](O)[C@@H](O)CO [Xylitol]
- effect on acanthamoeba cysticidal effects of PHMB [3]: potentiate
- corneal SPK [4]: reduce
- symptoms and inflammation (imaging of retro-palpebral and ocular surface mucosa, Meibomian gland obstruction) [4]: improve
- growth of S. mutans [5]: markedly reduced
- effect on growth of Streptococcus salivarius [6]: modest by comparison, but still significant
- effect on growth of Streptococcus sanguis [7]: modest by comparison, but still significant
- inhibition of pneumococcal growth ([8]; 1% xylitol): 39%
- inhibition of pneumococcal growth ([8]; 5% xylitol solution): 72%
- growth of beta-haemolytic streptococci [9]: more modestly impaired
- growth of H. influenza [10]: minimally affected
- growth of M. catarrhalis [11]: minimally affected
- reduction of acute otitis media ([12]; chewing gum): approximately 40%
- reduction of acute otitis media ([12]; oral xylitol syrup): approximately 30%
- concentration capable of reducing adherence of S. mutans [13]: 6%
- concentration sufficient to reduce adherence of S. pneumoniae to epithelial cells [14]: 5%
- concentration sufficient to reduce adherence of H. influenzae to epithelial cells [15]: 5%
- adherence on epithelial cells [16]: did not diminish significantly
- reduction of virion concentrations [17]: multiple log MAR reduction
- time until xylitol disappeared from the saliva [18]: ≤ 15 min
